Reference: article PMC5660230, “Combined x-ray crystallography and computational modeling approach to investigate the Hsp90 C-terminal peptide binding to FKBP51” (Scientific Reports, 2017)
“Also recorded” adds a separate entry of the source. Residues, ends and D or L forms follow the SMILES beside them.

How the values were obtained:
FKBP51 = experiment: Differential scanning fluorimetry (DSF), melting temperature shift of FKBP51; assay type: binding, human; details: FKBP51 0.1 mg/ml, 5X SYPRO orange, 0.5X PBS
Protocol: (§1) Differential scanning fluorimetry was performed using Bio-Rad CFX96 qPCR following a well-established protocol. Briefly, 25 µl of solution containing purified FKBP51 at a concentration of 0.1 mg/ml, 5X SYPRO orange (Life Technologies), and Hsp90 C-terminal peptide ranging from 0–500 µM in 0.5X PBS was transferred to a 96-well PCR plate in triplicate. The plate was centrifuged, sealed and the fluorescence was measured using the FRET channel between 20 and 80 °C with an increment of 0.2 °C in each cycle. The melting temperature was determined from the first derivative peaks of the melting curve using Bio-Rad CFX96 manager software. Further, the dissociation constant of the complex between FKBP51 and C90 was determined by fitting the resulting data using single site ligand binding model[35] with the bottom (T1) and top (T2) temperatures fitting to 43.8 and 48.5 °C, respectively. The concentration of FKBP51 (2 µM) was used as the value of the constant P. The fitting was performed using GraphPad Prism, version 7.02. Additionally, we incubated the FKBP51 with 200 µM of control peptide (DDDDDDDDDD) in a similar way.

FKBP51 (TPR domain) = molecular target: T1, FKBP51 (TPR domain) (Homo sapiens, UniProt Q13451); experiment: Differential scanning fluorimetry (DSF), dissociation constant of FKBP51-C90 complex under thermal denaturation; assay type: binding
T1 construct: FKBP51 full length DNA (IMAGE cDNA clone: 5753397 5′) was PCR amplified; GST (N, cleaved yes); made in house; host or cells: E. coli BL21
T1 sequence (Q13451 1-457): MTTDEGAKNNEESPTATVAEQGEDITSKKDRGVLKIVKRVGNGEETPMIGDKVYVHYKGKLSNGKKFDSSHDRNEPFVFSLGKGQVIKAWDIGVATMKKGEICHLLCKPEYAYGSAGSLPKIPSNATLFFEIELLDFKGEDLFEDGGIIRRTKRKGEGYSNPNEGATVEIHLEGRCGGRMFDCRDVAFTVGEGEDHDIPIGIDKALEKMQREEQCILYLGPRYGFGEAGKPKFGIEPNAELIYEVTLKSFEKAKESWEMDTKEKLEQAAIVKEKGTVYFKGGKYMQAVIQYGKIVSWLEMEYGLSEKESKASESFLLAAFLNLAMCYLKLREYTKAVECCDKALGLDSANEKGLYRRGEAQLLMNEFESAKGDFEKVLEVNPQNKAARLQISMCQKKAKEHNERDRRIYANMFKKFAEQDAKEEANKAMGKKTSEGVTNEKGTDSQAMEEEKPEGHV
Protocol: as §1

Molecule | ΔTm (first melting point) (FKBP51; C90 250 µM vs 0 µM, triplicate, first derivative of melting curve) | first melting point of FKBP51 in presence of peptide (FKBP51; C90 250 µM, triplicate, without peptide 44 °C / 43.8 °C) | second melting point of FKBP51 in presence of peptide (FKBP51; C90 250 µM, triplicate, without peptide 58.6 °C / 57.8 °C) | Kd (FKBP51 (TPR domain); DSF under thermal denaturation, full-length FKBP51 0.1 mg/ml (2 µM), 5X SYPRO orange, 0.5X PBS, C90 0–250 µM / 0–500 µM (method), triplicate, 20–80 °C, 0.2 °C increments, Tm by first derivative, single site ligand binding model, T1 43.8 and T2 48.5 °C, R^2 0.99) | dissociation constant compared with reported FKBP38-MEEVD peptide (FKBP51 (TPR domain); DSF value of FKBP51-C90 complex compared with literature value of FKBP38-MEEVD peptide) | change in melting point of FKBP51 (control peptide) (FKBP51; control peptide 200 µM vs 0 µM)
CSCC[C@H](NC(=O)[C@H](CCCNC(=N)N)NC(=O)[C@H](CO)NC(=O)[C@@H](NC(=O)[C@H](CC(=O)O)NC(=O)[C@H](Cc1c[nH]cn1)NC(=O)[C@H](Cc1c[nH]cn1)NC(=O)[C@H](Cc1c[nH]cn1)NC(=O)[C@H](Cc1c[nH]cn1)NC(=O)[C@H](Cc1c[nH]cn1)NC(=O)[C@@H](N)Cc1c[nH]cn1)[C@@H](C)O)C(=O)N[C@@H](CCC(=O)O)C(=O)N[C@@H](CCC(=O)O)C(=O)N[C@H](C(=O)N[C@@H](CC(=O)O)C(=O)O)C(C)C [C90] (H-HHHHHHDTSRMEEVD-OH) | 4.8 °C | 48.6 °C | without much change in the second melting point; also recorded: without affecting the second melting point | 70 ± 32 µM | very similar to the reported dissociation constant of FKBP38-MEEVD peptide | 
H-DDDDDDDDDD-OH [control peptide, reference compound] |  |  |  |  |  | did not lead to any change in the melting point of FKBP51
